This assay deals with AML cell line MV4-11. Briefly: Anticancer activity: Alamar Blue 3-day proliferation assay. It is filed as cell-based. The settings on record: Homo sapiens, MV4-11 cells, 72h, read-out: MV4-11 EC50_μM. The method, then:
The impact of the compounds on cancer cell proliferation was determined using the AML cell line MV4-11 (ATCC) in a 3-day proliferation assay. MV4-11 cells were maintained in RPMI supplemented with 10% FBS at 37° C., 5% CO2. For compound testing, MV4-11 cells were plated in a 96-well black bottom plate at a density of 15,000 cells/well in 100 μL culture media and incubated at 37° C. overnight. Compound dilution series were prepared in DMSO via a 3-fold serial dilution from 100 μM to 0.005 μM. The DMSO dilution series were then diluted with media, with the final compound concentrations added to the wells ranging from 10 μM to 0.0005 μM. […] The fluorescent readings from the Alamar Blue assay were normalized to the DMSO treated cells and analyzed using the GraphPad Prism software with siginoidal curve fitting to obtain EC50.
For orientation: The colour change of resazurin is a common sign of viable cells or microbes.
As for `CCOC(=O)CC1N=C(c2ccc(Cl)cc2)c2c(cnn2C)-c2cn(C)c(=O)cc21` (racemic) [w, Ethyl 2-(4-(4-chlorophenyl)-3,9-dimethyl-8-oxo-3,6,8,9-tetrahydropyrazolo[3,4-c]pyrido[3,4-e]azepin-6-yl)acetate], the EC50 is 0.026 µM.

As for `CCNC(=O)CC1OC(c2ccc(Cl)cc2)c2c(sc(C)c2C)-c2cn(C)c(=O)cc21` (racemic) [bb, 2-(4-(4-chlorophenyl)-2,3,9-trimethyl-8-oxo-4,6,8,9-tetrahydrothieno[2′,3′:5,6]oxepino[4,3-c]pyridin-6-yl)-N-ethylacetamide], the EC50 was less than 0.0005 µM.

Take `CCNC(=O)CC1N=C(c2ccc(Cl)cc2)c2nc(C)sc2-c2cn(C)c(=O)cc21` (racemic) [m, 2-(4-(4-chlorophenyl)-2,9-dimethyl-8-oxo-8,9-dihydro-6H-pyrido[4,3-c]thiazolo[5,4-e]azepin-6-yl)-N-ethylacetamide]: the EC50 is 0.14 µM.

Turning to `CCNC(=O)CC1N=C(c2ccc(Cl)cc2)c2cc(OC)ncc2-c2cn(C)c(=O)cc21` (racemic) [t, 2-(7-(4-chlorophenyl)-9-methoxy-2-methyl-3-oxo-3,5-dihydro-2H-dipyrido[4,3-c:3′,4′-e]azepin-5-yl)-N-ethylacetamide], the EC50 came to 0.017 µM.

As to `CCOC(=O)CC1N=C(c2ccc(Cl)cc2)c2nc(C)sc2-c2cn(C)c(=O)cc21` (racemic) [l, Ethyl 2-(4-(4-chlorophenyl)-2,9-dimethyl-8-oxo-8,9-dihydro-6H-pyrido[4,3-c]thiazolo[5,4-e]azepin-6-yl)acetate], the EC50 came to 0.43 µM.

With `CCNC(=O)CC1N=C(CC2CC2)c2c(sc(C)c2C)-c2cn(C)c(=O)cc21` (racemic) [r, 2-(4-(cyclopropylmethyl)-2,3,9-trimethyl-8-oxo-8,9-dihydro-6H-pyrido[4,3-c]thieno[2,3-e]azepin-6-yl)-N-ethylacetamide], the EC50 worked out at 0.157 µM.

Consider `CCNC(=O)CC1OC(c2ccc(Cl)cc2)c2c(cnn2C)-c2cn(C)c(=O)cc21` (racemic) [ll, 2-(4-(4-chlorophenyl)-3,9-dimethyl-8-oxo-4,6,8,9-tetrahydro-3H-pyrazolo[4′,3′:5,6]oxepino[4,3-c]pyridin-6-yl)-N-ethylacetamide], for which the EC50 was less than 0.0005 µM.
